Laboratory results from patent US20110053897A1 (IRM LLC, priority 2009, published 2011).
Where two headings read alike, the source gives them in different places.

Target: T1, Syk kinase (Homo sapiens, UniProt P43405)
T1 construct: purchased
Assay: Syk kinase inhibition, Caliper LabChip off-chip mobility-shift kinase assay
Type: biochemical
Details: read-out: Syk Enzyme IC50
Summary of the method: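 Purified Syk pre-incubated 15 min with compound in 100 mM HEPES pH 7.5, 1 mM DTT, 10 mM MgCl2 or MnCl2, 0.002% Brij-35, then 1.5 μM fluorescein peptide and ATP at apparent KM added; 1–1.5 h at room temperature, 4% DMSO, EDTA stop. Microfluidic mobility-shift product/substrate conversion gave % inhibition; IC50 from 12-point series (10–0.00003 μM) by 4-parameter fit.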

CC(C)(C)Nc1nc(Nc2cc(C(C)(C)C(N)=O)ccn2)cc2ccn(CCO)c(=O)c12 [compound 862]
IC50 (Caliper LabChip assay): 579 nM

COCC(Cl)C(=O)N1CCC(c2ccc(Nc3nc(-c4cncc(OC)n4)cc4cc[nH]c(=O)c34)cc2C)CC1 (stereo not drawn) [compound 90]
IC50: 204 nM

COc1cncc(-c2cc3cc[nH]c(=O)c3c(Nc3ccc(C4CCN(CC5CC5(F)F)CC4)c(C)c3)n2)n1 (stereo not drawn) [compound 78]
IC50: 129 nM

CC(C)(C)Nc1nc(Nc2cc(-c3cnn(CC(N)=O)c3)ccn2)cc2ccn(CCO)c(=O)c12 [compound 849]
IC50 (Caliper LabChip assay): 102 nM

CC(C)(C)Nc1nc(Nc2cc(OCCO)ncn2)cc2ccn(C[C@H](O)CO)c(=O)c12 [compound 642]
IC50 (Caliper LabChip assay): 29 nM

CC(C)Nc1nc(Nc2cnccn2)cc2cc[nH]c(=O)c12 [compound 462]
IC50: 30 nM

O=c1c2c(N[C@H]3CC[C@@H](O)CC3)nc(Nc3cnccn3)cc2ccn1CC(F)(F)F [compound 1025]
IC50 (Caliper LabChip assay): 16 nM

CCN(CC)CCNC(=O)c1ccc(Nc2nc(Nc3cc(C)ccn3)cc3ccn(C)c(=O)c23)cc1 [compound 331]
IC50: 748 nM

[2H]C([2H])([2H])n1ccc2cc(Nc3cc(Cl)ccn3)nc(NC(C)(C)C)c2c1=O [compound 542]
IC50: 830 nM

Cc1ccnc(Nc2cc3cc[nH]c(=O)c3c(N3CC[C@@H](CO)C3)n2)c1 [compound 399]
IC50: 998 nM

CCn1ccc2cc(Nc3cnccn3)nc(NC3CC=C(C)CC3)c2c1=O (stereo not drawn) [compound 955]
IC50 (Caliper LabChip assay): 376 nM

CCn1ccc2cc(Nc3cnccn3)nc(N[C@@H]3CC[C@@H](CO)C3)c2c1=O [compound 791]
IC50 (Caliper LabChip assay): 58 nM

[2H][C@]1(O)CC[C@@H](Nc2nc(Nc3cnccn3)cc3ccn(CC)c(=O)c23)CC1 [compound 992]
IC50 (Caliper LabChip assay): 12 nM

CCn1ccc2cc(Nc3nccc(O)n3)nc(N[C@H]3CCC[C@H]3O)c2c1=O [compound 957]
IC50 (Caliper LabChip assay): 15 nM

CC(C)(C)Nc1nc(Nc2cc(C(C)(F)F)ccn2)cc2ccn(CCO)c(=O)c12 [compound 874]
IC50 (Caliper LabChip assay): 33 nM

Cc1ccnc(Nc2cc3ccn(C(C)C)c(=O)c3c(N[C@H]3CC[C@@H](O)CC3)n2)c1 [compound 943]
IC50 (Caliper LabChip assay): 39 nM

CCNC(=O)CN1CCC(c2ccc(Nc3nc(-c4cncc(OC)n4)cc4cc[nH]c(=O)c34)cc2C)CC1 [compound 179]
IC50: 80 nM

CCn1ccc2cc(Nc3cnccn3)nc(NC3CCCC(O)C3)c2c1=O (stereo not drawn) [compound 973]
IC50 (Caliper LabChip assay): 26 nM

[2H]C([2H])([2H])n1ccc2cc(Nc3cnccn3)nc(NC(C)(C)C)c2c1=O [compound 469]
IC50: 97 nM

CC1(Cn2ccc3cc(Nc4cnccn4)nc(NC4CC(F)(F)C4)c3c2=O)COC1 [compound 765]
IC50 (Caliper LabChip assay): 52 nM

O=c1[nH]ccc2cc(Nc3ccccn3)nc(Nc3ccc(N4CCOCC4)cc3)c12 [compound 509]
IC50: 143 nM

CC(C)(C)Nc1nc(Nc2cnccn2)cc2ccn(CCC(N)=O)c(=O)c12 [compound 661]
IC50 (Caliper LabChip assay): 10 nM

COCCN1CCC(c2ccc(Nc3nc(-c4ccc(C)nc4)cc4cc[nH]c(=O)c34)cc2C)CC1 [compound 47]
IC50: 12 nM

COc1cncc(-c2cc3cc[nH]c(=O)c3c(Nc3ccc(C4CCN(CCO)CC4)c(C)c3)n2)n1 [compound 143]
IC50: 5 nM

COc1nc(-c2cc3cc[nH]c(=O)c3c(Nc3ccc(C4CCN(CCC#N)CC4)c(C)c3)n2)cnc1N [compound 169]
IC50: 29 nM

CC(C)(C)Nc1nc(Nc2ccc(F)cn2)cc2ccn(CCO)c(=O)c12 [compound 696]
IC50 (Caliper LabChip assay): 328 nM

CCn1ccc2cc(Nc3cnccn3)nc(N[C@H]3CC[C@H](O)CC3)c2c1=O [compound 949]
IC50 (Caliper LabChip assay): 50 nM

Cc1cnc(Nc2cc3cc[nH]c(=O)c3c(Nc3ccc(C4CCN(C5CC5)CC4)c(C)c3)n2)cn1 [compound 248]
IC50: 2020 nM

[2H]C([2H])([2H])n1ccc2cc(Nc3cc(Cl)ccn3)nc(NC(C)(C)CO)c2c1=O [compound 786]
IC50 (Caliper LabChip assay): 71 nM

Cc1ccnc(Nc2cc3ccn(C(C)C)c(=O)c3c(N[C@H]3CC[C@H](O)CC3)n2)c1 [compound 964]
IC50 (Caliper LabChip assay): 51 nM

CC(C)(C)Nc1nc(Nc2cc(S(C)(=O)=O)ccn2)cc2ccn(CCO)c(=O)c12 [compound 699]
IC50 (Caliper LabChip assay): 99 nM

CCN1CCN(c2n[nH]c3cc(Nc4nc(-c5ccc(C)nc5)cc5cc[nH]c(=O)c45)ccc23)CC1 [compound 200]
IC50: 56 nM

Cc1ccnc(Nc2cc3ccn(CCO)c(=O)c3c(N[C@H]3CCC[C@H]3O)n2)c1 (racemic) [compound 368]
IC50: 16 nM

COCCOCC(=O)N1CCC(c2ccc(Nc3nc(-c4cncc(OC)n4)cc4cc[nH]c(=O)c34)cc2)CC1 [compound 27]
IC50: 44 nM

Cc1ccnc(Nc2cc3cc[nH]c(=O)c3c(N3CC[C@@H](O)C3)n2)c1 [compound 401]
IC50: 967 nM

Cc1ccnc(Nc2cc3ccn(C)c(=O)c3c(NC3CCC3)n2)c1 [compound 489]
IC50: 124 nM

Cn1ccc2cc(-c3cnc(N)nc3)nc(NCCN3CCOCC3)c2c1=O [compound 36]
IC50: 428 nM

O=c1c2c(N[C@H]3CC[C@@H](O)CC3)nc(Nc3cnccn3)cc2ccn1Cc1ccncc1 [compound 1024]
IC50 (Caliper LabChip assay): 174 nM

[2H][C@]1(O)CC[C@H](Nc2nc(Nc3cc(C)ccn3)cc3ccn(CC)c(=O)c23)CC1 [compound 990]
IC50 (Caliper LabChip assay): 20 nM

CCN1CCN(CCc2ccc(Nc3nc(Nc4ccc(C(N)=O)cn4)cc4cc[nH]c(=O)c34)cc2)CC1 [compound 579]
IC50: 113 nM

CC(C)(C)Nc1nc(Nc2cc(C(F)(F)F)ccn2)cc2ccn(CCO)c(=O)c12 [compound 901]
IC50 (Caliper LabChip assay): 231 nM

Cc1ccnc(Nc2cc3cc[nH]c(=O)c3c(Nc3ccc(N4CCO[C@H](C)C4)c(C)c3)n2)c1 [compound 584]
IC50: 2680 nM

COCCNC(=O)c1ccc(Nc2nc(-c3cncc(OC)n3)cc3cc[nH]c(=O)c23)cc1 [compound 59]
IC50: 168 nM

CCn1ccc2cc(Nc3cc(C)ccn3)nc(NC(C)(C)C)c2c1=O [compound 525]
IC50: 242 nM

CC(C)(C)Nc1nc(Nc2cnccn2)cc2ccn(C[C@H](O)CO)c(=O)c12 [compound 669]
IC50 (Caliper LabChip assay): 6 nM

CN1CCCN(CCc2ccc(Nc3nc(-c4cncnc4)cc4cc[nH]c(=O)c34)cc2)CC1 [compound 435]
IC50: 86 nM

Cc1ccnc(Nc2cc3ccn(C)c(=O)c3c(Nc3ccc(S(C)(=O)=O)cc3)n2)c1 [compound 332]
IC50: 78 nM

CC1(Cn2ccc3cc(Nc4cnccn4)nc(NC4CCCC4)c3c2=O)COC1 [compound 762]
IC50 (Caliper LabChip assay): 22 nM

[2H]C([2H])([2H])n1ccc2cc(-c3cnc(N)nc3)nc(N[C@H]3CC[C@@H](O)CC3)c2c1=O [compound 1026]
IC50 (Caliper LabChip assay): 21 nM

O=c1c2c(N[C@H]3CC[C@@H](O)CC3)nc(Nc3cnccn3)cc2ccn1CC(O)C(F)(F)F (stereo partly drawn) [compound 1012]
IC50 (Caliper LabChip assay): 56 nM

COCCCN1CCC(c2ccc(Nc3nc(-c4cnc(OC)nc4)cc4cc[nH]c(=O)c34)cc2F)CC1 [compound 196]
IC50: 59 nM

O=c1c2c(NC3CC3)nc(Nc3cnccn3)cc2ccn1CCO [compound 818]
IC50 (Caliper LabChip assay): 27 nM

CCn1ccc2cc(Nc3cncnc3C)nc(NC(C)C)c2c1=O [compound 348]
IC50: 7440 nM

Cc1ccnc(Nc2cc3ccn(CCO)c(=O)c3c(Nc3ccc(C(=O)N4CCOCC4)c(C)c3)n2)c1 [compound 650]
IC50 (Caliper LabChip assay): 186 nM

Cn1ccc2cc(Nc3cnccn3)nc(Nc3ccc(C4CCNCC4)cc3)c2c1=O [compound 341]
IC50: 112 nM

CCCNC(=O)c1ccc(Nc2cc3ccn(C)c(=O)c3c(N)n2)nc1 [compound 575]
IC50: 2610 nM

COc1cncc(-c2cc3cc[nH]c(=O)c3c(Nc3ccc(C4CCN(C(C)C(N)=O)CC4)c(C)c3)n2)n1 (stereo not drawn) [compound 136]
IC50: 46 nM

CCn1ccc2cc(Nc3cnccn3)nc(NC(C)(C)CO)c2c1=O [compound 471]
IC50: 100 nM

CCN1CCN(CCc2ccc(Nc3nc(-c4cnn(C)c4)cc4cc[nH]c(=O)c34)cc2)CC1 [compound 441]
IC50: 58 nM

NC(=O)Cn1ccc2cc(-c3cnc(N)nc3)nc(NC3CCOCC3)c2c1=O [compound 750]
IC50 (Caliper LabChip assay): 24 nM

CC(C)Nc1nc(-c2cnc(N)nc2)cc2ccn(CCO)c(=O)c12 [compound 32]
IC50: 140 nM

O=c1c2c(N[C@H]3CCOC3)nc(Nc3cnccn3)cc2ccn1CCO [compound 375]
IC50: 14 nM

Cc1ccnc(Nc2cc3ccn(C)c(=O)c3c(Nc3ccc(C)c(S(N)(=O)=O)c3)n2)c1 [compound 654]
IC50 (Caliper LabChip assay): 250 nM

CNC(=O)C(C)(C)c1ccc(Nc2nc(-c3cnc4nccn4c3)cc3cc[nH]c(=O)c23)cc1 [compound 29]
IC50: 30 nM

COc1cncc(-c2cc3cc[nH]c(=O)c3c(Nc3ccc(CCCN4CCOCC4)cc3)n2)n1 [compound 40]
IC50: 95 nM

CCCc1ccnc(Nc2cc3ccn(CC)c(=O)c3c(NC(C)C)n2)c1 [compound 306]
IC50: 612 nM

COCCCc1cc2cc[nH]c(=O)c2c(Nc2ccc(C3CCN(C4CC4)CC3)c(C)c2)n1 [compound 238]
IC50: 1290 nM

O=c1[nH]ccc2cc(Nc3ccc([N+](=O)[O-])cn3)nc(Nc3ccc(N4CCOCC4)cc3)c12 [compound 565]
IC50: 710 nM

Cc1ccnc(Nc2cc3cc[nH]c(=O)c3c(NCc3ccccc3)n2)c1 [compound 591]
IC50: 5680 nM

CCn1ccc2cc(Nc3cnccn3)nc(N[C@@H]3CCC[C@H]3O)c2c1=O [compound 940]
IC50 (Caliper LabChip assay): 483 nM

Nc1ncc(-c2cc3ccn(C[C@H](O)CO)c(=O)c3c(NC3CCCC3)n2)cn1 [compound 776]
IC50 (Caliper LabChip assay): 18 nM

CC(C)(C)Nc1nc(Nc2cc(-c3ccn[nH]3)ccn2)cc2ccn(CCO)c(=O)c12 [compound 690, 6-(4-(1H-pyrazol-5-yl)pyridin-2-ylamino)-8-(tert-butylamino)-2-(2-hydroxyethyl)-2,7-naphthyridin-1(2H)-one]
IC50 (Caliper LabChip assay): 67 nM

Cc1ccnc(Nc2cc3ccn(C)c(=O)c3c(NCC(F)(F)F)n2)c1 [compound 493]
IC50: 214 nM

Cc1cc(Nc2nc(Nc3cc(Cl)ccn3)cc3cc[nH]c(=O)c23)ccc1C1CCN(C2CC2)CC1 [compound 257]
IC50: 170 nM

[2H]C(C)(O)c1cc(Nc2cc3ccn(CCO)c(=O)c3c(NC(C)(C)C)n2)ncc1F (stereo not drawn) [compound 876]
IC50 (Caliper LabChip assay): 15 nM
